# Data reported in ChEMBL document CHEMBL5241090, “A comprehensive overview of β-carbolines and its derivatives as anticancer agents” (Eur J Med Chem, 2021).
# Legend:
# HCC1395 = assay: Antiproliferative activity against human HCC1395 cells incubated for 48 hrs by MTT assay; type: functional, cell-based; details: HCC1395, 48 h
# DU-145 [1] = assay: Antiproliferative activity against human DU-145 cells incubated for 48 hrs by MTT assay; type: functional, cell-based; details: DU-145, 48 h
# MCF7 [2] = assay: Cytotoxicity against human MCF7 cells; type: functional, cell-based
# A549 [3] = assay: Cytotoxicity against human A549 cells; type: functional, cell-based
# DU-145 [4] = assay: Cytotoxicity against human DU-145 cells; type: functional, cell-based
# ACHN = assay: Cytotoxicity against human ACHN cells; type: functional, cell-based
# HeLa [5] = assay: Cytotoxicity against human HeLa cells; type: functional, cell-based
# NCI-H187 = assay: Cytotoxicity against human NCI-H187 cells; type: functional, cell-based
# MCF7 [6] = assay: Cytotoxicity against human MCF7 cells by MTT assay; type: functional, cell-based
# HCT-116 [7] = assay: Cytotoxicity against human HCT-116 cells by MTT assay; type: functional, cell-based
# OVCAR-3 = assay: Cytotoxicity against human OVCAR-3 cells by MTT assay; type: functional, cell-based
# HT-1080 = assay: Cytotoxicity against human HT-1080 cells; type: functional, cell-based
# A2780 = assay: Cytotoxicity against human A2780 cells measured after 24 hrs by MTT assay; type: functional, cell-based; details: A2780, 24 h
# COLO 205 = assay: Cytotoxicity against human COLO 205 cells measured after 24 hrs by MTT assay; type: functional, cell-based; details: COLO 205, 24 h
# MCF7 [8] = assay: Cytotoxicity against human MCF7 cells measured after 24 hrs by MTT assay; type: functional, cell-based; details: MCF7, 24 h
# A549 [9] = assay: Cytotoxicity against human A549 cells measured after 24 hrs by MTT assay; type: functional, cell-based; details: A549, 24 h
# HepG2 = assay: Cytotoxicity against human HepG2 cells; type: functional, cell-based; details: read-out: TC50 (the source's name)
# DNA topoisomerase 1 = target: T1, DNA topoisomerase 1 (Homo sapiens, UniProt P11387); assay: Inhibition of Topoisomerase 1 (unknown origin)
# T1 sequence (P11387 whole entry): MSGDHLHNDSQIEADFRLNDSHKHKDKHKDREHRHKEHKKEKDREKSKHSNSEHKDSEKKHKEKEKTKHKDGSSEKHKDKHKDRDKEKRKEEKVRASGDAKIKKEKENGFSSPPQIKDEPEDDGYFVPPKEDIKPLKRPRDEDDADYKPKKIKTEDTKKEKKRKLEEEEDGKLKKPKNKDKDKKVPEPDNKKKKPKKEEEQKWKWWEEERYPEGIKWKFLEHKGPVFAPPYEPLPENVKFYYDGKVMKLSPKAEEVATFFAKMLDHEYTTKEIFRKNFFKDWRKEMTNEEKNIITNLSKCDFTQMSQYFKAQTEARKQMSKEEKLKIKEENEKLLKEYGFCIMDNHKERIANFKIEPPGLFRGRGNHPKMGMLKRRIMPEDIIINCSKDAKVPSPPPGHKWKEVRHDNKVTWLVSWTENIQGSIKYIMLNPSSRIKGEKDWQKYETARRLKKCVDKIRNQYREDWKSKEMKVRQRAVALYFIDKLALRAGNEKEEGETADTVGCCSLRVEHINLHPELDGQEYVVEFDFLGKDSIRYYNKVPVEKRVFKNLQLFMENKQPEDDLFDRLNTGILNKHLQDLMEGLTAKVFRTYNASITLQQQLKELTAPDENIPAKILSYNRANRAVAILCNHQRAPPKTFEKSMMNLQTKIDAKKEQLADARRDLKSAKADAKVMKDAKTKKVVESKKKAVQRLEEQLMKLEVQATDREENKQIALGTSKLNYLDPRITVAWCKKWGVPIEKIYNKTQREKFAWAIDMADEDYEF
# [10] = target: T2, Kinesin-like protein KIF11 (Homo sapiens, UniProt P52732); assay: Inhibition of KSP (unknown origin)
# T2 sequence (P52732 whole entry): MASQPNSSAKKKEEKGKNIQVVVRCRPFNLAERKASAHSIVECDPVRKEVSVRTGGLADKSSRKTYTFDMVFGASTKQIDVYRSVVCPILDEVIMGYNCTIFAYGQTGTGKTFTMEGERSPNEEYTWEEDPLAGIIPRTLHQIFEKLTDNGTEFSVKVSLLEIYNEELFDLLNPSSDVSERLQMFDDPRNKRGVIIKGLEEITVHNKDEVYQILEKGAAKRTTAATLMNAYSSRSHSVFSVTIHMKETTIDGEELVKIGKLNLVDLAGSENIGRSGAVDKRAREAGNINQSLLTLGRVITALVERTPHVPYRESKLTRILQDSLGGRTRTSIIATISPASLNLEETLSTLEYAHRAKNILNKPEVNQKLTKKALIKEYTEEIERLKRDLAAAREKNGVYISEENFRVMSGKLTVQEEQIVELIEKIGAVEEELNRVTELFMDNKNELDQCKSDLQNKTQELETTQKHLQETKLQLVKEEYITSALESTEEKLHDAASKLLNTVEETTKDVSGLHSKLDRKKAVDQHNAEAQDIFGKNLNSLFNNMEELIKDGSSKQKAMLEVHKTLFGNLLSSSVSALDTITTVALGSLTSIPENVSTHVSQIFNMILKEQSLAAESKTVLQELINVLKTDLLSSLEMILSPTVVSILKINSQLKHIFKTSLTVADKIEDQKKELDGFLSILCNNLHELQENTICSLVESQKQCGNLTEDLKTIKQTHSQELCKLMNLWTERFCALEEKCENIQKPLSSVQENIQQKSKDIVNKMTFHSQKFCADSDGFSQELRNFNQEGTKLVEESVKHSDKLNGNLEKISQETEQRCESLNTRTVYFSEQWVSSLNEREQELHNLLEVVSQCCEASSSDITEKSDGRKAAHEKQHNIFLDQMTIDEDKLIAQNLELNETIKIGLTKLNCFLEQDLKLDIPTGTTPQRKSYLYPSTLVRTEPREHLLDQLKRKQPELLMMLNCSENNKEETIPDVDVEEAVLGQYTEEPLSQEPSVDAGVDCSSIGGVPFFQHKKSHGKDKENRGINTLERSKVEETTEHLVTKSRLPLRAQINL
# A549 [11] = assay: Cytotoxicity against human A549 cells measured after 48 hrs by MTT assay; type: functional, cell-based; details: A549, 48 h
# HeLa [12] = assay: Cytotoxicity against human HeLa cells measured after 48 hrs by MTT assay; type: functional, cell-based
# SMMC-7721 = assay: Cytotoxicity against human SMMC-7721 cells measured after 48 hrs by MTT assay; type: functional, cell-based; details: SMMC-7721, 48 h
# SGC-7901 = assay: Cytotoxicity against human SGC-7901 cells measured after 48 hrs by MTT assay; type: functional, cell-based; details: SGC-7901, 48 h
# KB = assay: Cytotoxicity against human KB cells assessed as inhibition of growth measured after 1 day by hemacytometer; type: functional; details: 24 h, read-out: ED50 (the source's name)
# Keratinocyte = assay: Cytotoxicity against guinea pig ear keratinocytes using [3H]thymidine by liquid scintillation counting analysis; type: functional, cell-based; details: Cavia porcellus
# HT-29 = assay: Growth inhibition of human HT-29 cells incubated for 72 hrs by SRB assay; type: functional, cell-based; details: HT-29, 72 h
# MDA-MB-231 = assay: Growth inhibition of human MDA-MB-231 cells incubated for 72 hrs by SRB assay; type: functional, cell-based; details: MDA-MB-231, 72 h
# A549 [13] = assay: Growth inhibition of human A549 cells incubated for 72 hrs by SRB assay; type: functional, cell-based; details: A549, 72 h
# Huh-7 = assay: Cytotoxicity against human Huh-7 cells; type: functional, cell-based
# HCT-116 [14] = assay: Cytotoxicity against human HCT-116 cells; type: functional, cell-based
# MG-63 = assay: Cytotoxicity against human MG-63 cells; type: functional, cell-based
structure (smiles),measurement,setting,value
COc1ccc2c(c1)c1ccnc3ccc(=O)n2c31,IC50,HCC1395,14.7 µg/mL
same,IC50,DU-145 [1],1.58 µg/mL
O=C(/C=C/c1cc2c([nH]c3ccccc32)c(-c2ccc(C(F)(F)F)cc2)n1)c1ccco1,IC50,MCF7 [2],1890 nM
same,IC50,A549 [3],1890 nM
same,IC50,DU-145 [4],1890 nM
same,IC50,ACHN,1890 nM
same,IC50,HeLa [5],1890 nM
C[C@H](O)c1nc(O)cc2c1[nH]c1ccccc12,IC50,NCI-H187,79900 nM
COc1ccc2c3ccnc(C)c3n(CC(=O)N/N=C/c3ccc(C(C)(C)C)cc3)c2c1,IC50,MCF7 [6],4000 nM
same,IC50,HCT-116 [7],5000 nM
same,IC50,OVCAR-3,2500 nM
COc1c(O)ccc2c1c1ccnc3ccc(=O)n2c31,IC50,HT-1080,7200 nM
COc1cc2nc(-c3nc(-c4nccc5c4[nH]c4ccccc45)cs3)[nH]c2cc1OC,IC50,A2780,1230 nM
same,IC50,COLO 205,340 nM
same,IC50,MCF7 [8],92 nM
same,IC50,A549 [9],720 nM
O=C(O)[C@@H](O)Cc1nccc2c1[nH]c1ccccc12,CC50,HepG2,> 50000 nM
O=C(NNC(=S)Nc1ccc(Br)cc1)c1cc2c([nH]c3ccccc32)c(-c2cccc(O)c2)n1,IC50,DNA topoisomerase 1,5800 nM
same,IC50,[10],13400 nM
Cc1ccccc1Cn1c2ccccc2c2cc(C(=O)OCCCCCOC(=O)c3cc4c5ccccc5n(Cc5ccccc5C)c4cn3)ncc21,IC50,A549 [11],6930 nM
same,IC50,HeLa [12],6930 nM
same,IC50,SMMC-7721,6930 nM
same,IC50,SGC-7901,6930 nM
COc1cccc2c1c1c(O)cnc3ccc(=O)n2c31,EC50,KB,2 µg/mL
COc1cnc2ccc(=O)n3c4ccccc4c1c23,IC50,Keratinocyte,5.76 µg/mL
COC(=O)c1cc2c([nH]c3ccccc32)c([C@H](C)O)n1,IC50,NCI-H187,75100 nM
NC(=O)c1c(-c2c[nH]c3cc(O)ccc23)ncc2[nH]c3ccc(O)cc3c12,IC50,HT-29,45 µg/mL
same,IC50,MDA-MB-231,42 µg/mL
same,IC50,A549 [13],35 µg/mL
COc1cnc2ccc(=O)n3c4cccc(O)c4c1c23,EC50,KB,2 µg/mL
Cc1ccc(-c2nc(NCc3ccc(C(=O)NO)cc3)cc3c2[nH]c2ccccc23)cc1,IC50,MCF7 [2],530 nM
same,IC50,Huh-7,530 nM
same,IC50,HCT-116 [14],530 nM
O=C(c1cc2c([nH]c3ccccc32)c(-c2ccccc2)n1)N1CCN(S(=O)(=O)c2ccc(Cl)cc2)CC1,IC50,MG-63,2800 nM
COc1ccc(C(=O)n2c3ccccc3c3ccnc(-c4cc(-c5ccc(-c6nc7ccccc7s6)cc5)no4)c32)c(OC)c1OC,IC50,A2780,190 nM
same,IC50,COLO 205,640 nM
same,IC50,MCF7 [8],100 nM
same,IC50,A549 [9],140 nM
